Measured values from patent publication US11414385B2, “Compounds and methods for treating, detecting, and identifying compounds to treat apicomplexan parasitic diseases” (The University of Chicago, priority 2015, dated 2022).
Where two headings read alike, the source gives them in different places.

What was measured:
[1] = system: P. falciparum strains D6, TM91-C235, W2, C2B; experiment: Malaria SYBR Green I-Based Fluorescence (MSF) Assay; format: cell-based, Plasmodium falciparum; settings: Plasmodium falciparum
Method: Testing of P. falciparum: D6 is a drug sensitive strain from Sierra Leone, C235 is a multi-drug resistant strain from Thailand, W2 is a chloroquine resistant strain from Thailand, and C2B has resistance to a variety of drugs including atovaquone.
D6 is a drug sensitive strain from Sierra Leone, C235 is a multi-drug resistant strain from Thailand, W2 is a chloroquine resistant strain from Thailand, and C2B has resistance to a variety of drugs including atovaquone. These assays were performed as described.
(§1) Compound activity against P. falciparum, a causative agent of malaria, was tested using the Malaria SYBR Green I—Based Fluorescence (MSF) Assay. This; microtiter plate drug sensitivity assay uses the presence of malarial DNA as a measure of parasitic proliferation in the presence of antimalarial drugs or experimental compounds based on modifications of previously described methods by Plouffe et al (20) and Johnson et al. As the intercalation of SYBR Green I dye and its resulting fluorescence is relative to parasite growth, a test compound that inhibits the growth of the parasite will result in a lower fluorescence.
Selected compounds were examined for activity against four strains of P. falciparum: D6 (CDC/Sierra Leone), a drug-sensitive strain readily killed by chloroquine, TM91-C235, a multi-drug resistant strain resistant to chloroquine, W2, a chloroquine resistant strain from Thailand, and C2B has resistance to a variety of drugs including atovaquone.
D6 is a drug sensitive strain from Sierra Leone, C235 is a multi-drug resistant strain from Thailand, W2 is a chloroquine resistant strain from Thailand, and C2B has resistance to a variety of drugs including atovaquone. These assays were performed using standard protocols.
as §1, with “known in the art.” for “by Plouffe et al (20) and Johnson et al.”, “fluorescence. Selected compounds were examined for activity against four strains of P. falciparum: D6 (CDC/Sierra Leone), a drugsensitive strain readily killed by chloroquine, TM91-C235, a multi-drug resistant strain resistant to chloroquine, W2, a chloroquine resistant strain from Thailand, and C2B has resistance to a variety of drugs including atovaquone.” for “fluorescence.”

[2] = system: T. gondii tachyzoites (RH-YFP strain); experiment: In vitro challenge assay for Toxoplasma tachyzoites (RH-YFP in HFF, fluorescence); format: cell-based, Toxoplasma gondii; settings: Toxoplasma gondii; RH-YFP; read-out: Tachy IC50
Method: Human foreskin fibroblasts (HFF) were cultured on a flat, clear-bottomed, black 96-well plate to 90% to 100% confluence. IMDM (1×, [+] glutamine, [+] 25 mM HEPES, [+] Phenol red, 10% FBS [gibco, Denmark]) was removed from each well and replaced with IMDM-C (1×, [+] glutamine, [+] 25 mM HEPES, [−] Phenol red, 10% FBS)[Gibco, Denmark]). Type I RH parasites expressing Yellow Fluorescent Protein (RH-YFP) were lysed from host cells by double passage through a 27-gauge needle. Parasites were counted and diluted to 32,000/mL in IMDM-C. Fibroblast cultures were infected with 3200 tachyzoites of the Type I RH-YFP strain and returned to incubator at 37° C. for 1-2 hours to allow for infection. Diluted solutions of the compounds were made using IMDM-C, and 20 μl were added to each designated well, with triplicates for each condition. Controls included pyrimethamine/sulfadiazine (current standard of treatment), DMSO only, fibroblast only, and an untreated YFP gradient with 2 fold dilutions of the parasite. Cells were incubated at 37° C. for 72 hours. The plates were read using a fluorimeter (Synergy H4 Hybrid Reader, BioTek) To ascertain the amount of yellow fluorescent protein, in relative fluorescence units (RFU), as a measure of parasite burden after treatment. Compounds were not considered effective or pursued for further analysis if there were no signs of inhibition at 1 μM. Data was collected using Gen5 software and analyzed with Excel.
Protocol adapted from Fomovska, et. al. (18,19). Human foreskin fibroblasts (HFF) were cultured on a flat, clear-bottomed, black 96-well plate to 90% to 100% confluence. IMDM (1×, [+] glutamine, [+] 25 mM HEPES, [+] Phenol red, 10% FBS [gibco, Denmark]) was removed from each well and replaced with IMDM-C (1×, [+] glutamine, [+] 25 mM HEPES, [−] Phenol red, 10% FBS)[gibco, Denmark]). Type I RH parasites expressing Yellow Fluorescent Protein (RH-YFP) were lysed from host cells by double passage through a 27-gauge needle. Parasites were counted and diluted to 32,000/mL in IMDM-C. Fibroblast cultures were infected with 3200 tachyzoites of the Type I RH strain expressing Yellow Fluorescent Protein (RH-YFP) and returned to incubator at 37° C. for 1-2 hours to allow for infection (15). Various concentrations of the compounds were made using IMDM-C, and 20 μl were added to each designated well, with triplicates for each condition. Controls included pyrimethamine/sulfadiazine (current standard of treatment), 0.1% DMSO only, fibroblast only, and an untreated YFP gradient with 2 fold dilutions of the parasite. Cells were incubated at 37° C. for 72 hours. Plates were read using a fluorimeter (Synergy H4 Hybrid Reader, BioTek) to ascertain the amount of yellow fluorescent protein, in relative fluorescence units (RFU), as a measure of parasite burden after treatment. Data was collected using Gen5 software. IC50 was calculated by graphical analysis in Excel.
An initial screening assay of 10 μM, 1 μM, 100 nM, and 10 nM was performed. Compounds were not considered effective or pursued for further analysis if there were no signs of inhibition of tachyzoites at 1 μM. If compounds did appear to be effective at 1 μM, another experiment was conducted to assess effect at 1 μM, 500 nM, 250 nM, 125 nM, 62.5 nM, and 31.25 nM.
Protocol adapted from Fomovska, et. al. (Fomovska A, Huang Q, El Bissati K, Mui E J, Witola W H, Cheng G, et al. Novel N-Benzoyl-2-Hydroxybenzamide Disrupts Unique Parasite Secretory Pathway. Antimicrob Agents Chemother [Internet]. 2012 May [cited 2015 Jul. 8]; 56(5):2666-82; Fomovska A, Wood R D, Mui E, Dubey J P, Ferreira L R, Hickman M R, et al. Salicylanilide inhibitors of Toxoplasma gondii. J Med Chem. 2012 Oct. 11; 55(19):8375-91.). Human foreskin fibroblasts (HFF) were cultured on a flat, clear-bottomed, black 96-well plate to 90% to 100% confluence. […]

[3] = D6 strain, read-out: Pf D6 IC50
[4] = C2B strain, read-out: SYBR Green C2B IC50
[5] = D6 strain, read-out: SYBR Green D6 IC50
[6] = TM91C235 strain, read-out: SYBR Green C235 IC50
[7] = W2 strain, read-out: SYBR Green W2 IC50

Row | Structure (SMILES) | IC50 [1, 3] | IC50 [2] | IC50 [1, 4] | IC50 [1, 5] | IC50 [1, 6] | IC50 [1, 7]
1 | Cc1cc2[nH]c(C)c(-c3ccc(Oc4ccc(OC(F)(F)F)cc4)cc3)c(=O)n2n1 [JAG006, 2,5-dimethyl-6-(4 (4-(trifluoromethoxy)phenoxy)phenyl) pyrazolo[1,5-a]pyrimidin-7(4H)-one] | 290 nM | > 1000 nM | – | – | – | –
2 | CSc1nc2[nH]c(C)c(-c3ccc(Oc4ccc(OC(F)(F)F)cc4)cc3)c(=O)n2n1 [JAG013, 5-methyl-2-(methylthio)-6-(4-(4-(trifluoromethoxy)phenoxy)phenyl)-[1,2,4]triazolo[1,5-a]pyrimidin-7(4H)-one] | 1310 nM | > 1000 nM | 1390 nM | 1310 nM | 2600 nM | 2350 nM
3 | Cc1[nH]c2c(C#N)cnn2c(=O)c1-c1ccc(Oc2ccc(OC(F)(F)F)cc2)cc1 [JAG014, 5-methyl-7-oxo-6-(4-(4-(trifluoromethoxy)phenoxy)phenyl)-4,7-dihydropyrazolo[1,5-a]pyrimidine-3-carbonitrile] | 710 nM | > 1000 nM | 920 nM | 710 nM | 1350 nM | 1270 nM
4 | Cc1[nH]c2cc(-c3ccccc3)nn2c(=O)c1-c1ccc(Oc2ccc(OC(F)(F)F)cc2)cc1 [JAG015, 5-methyl-2-phenyl-6-(4-(4-(trifluoromethoxy)phenoxy)phenyl) pyrazolo[1,5-a]pyrimidin-7(4H)-one] | > 20000 nM | > 1000 nM | > 20000 nM | > 20000 nM | > 20000 nM | > 20000 nM
5 | Cc1[nH]c2c(c(=O)c1-c1ccc(Oc3ccc(Cl)cc3)cc1)CCCC2 [JAG50, 3-(4-(4-chlorophenoxy)phenyl)-2-methyl-5,6,7,8-tetrahydroquinolin-4(1H)-one] | 46.6 nM | 55 nM | – | – | – | –
6 | CCC1CCc2c([nH]c(C)c(-c3ccc(Oc4ccc(OC(F)(F)F)cc4)cc3)c2=O)C1 (stereo not shown) [JAG121, 7-Ethyl-2-methyl-3(4-(4-trifluoromethoxyphenoxy)phenyl)-5,6,7,8-tetrahydroquinolin-4(1H)-one] | – | 100 nM | – | – | – | –
7 | Cc1[nH]c2cnccc2c(=O)c1-c1ccc(Oc2ccc(OC(F)(F)F)cc2)cc1 [JAG129, 3(4-(4-trifluoromethoxyphenoxy)phenyl)-2-methyl-1,7-napthyrid-4(1H)-one] | – | 100 nM | – | – | – | –
8 | Cc1[nH]c2c(c(=O)c1-c1ccc(Oc3ccc(OC(F)(F)F)cc3)cc1)CCC(C(F)(F)F)C2 (stereo not shown) [JAG162, 7-Trifluromethyl-2-methyl-3(4-(4-trifluoromethoxyphenoxy)phenyl)-5,6,7,8-tetrahydroquinolin-4(1H)-one] | – | 500 nM | – | – | – | –
9 | Cc1[nH]c2ncnn2c(=O)c1-c1ccc(Oc2ccc(OC(F)(F)F)cc2)cc1 [MJM136, 5-methyl-6-(4-(4-(trifluoromethoxy)phenoxy)phenyl)-[1,2,4]triazolo[1,5-a]pyrimidin-7(4H)-one] | 200 nM | 1000 to 10000 nM | 380 nM | 200 nM | 580 nM | 550 nM
